Patent US20070185078A1, “Substituted triazole derivatives as oxytocin antagonists” (priority 2004, published 2007)

Molecular target: T1, Oxytocin Receptor (CHO-OTR/NFAT-β-Lactamase cells) (Homo sapiens, UniProt P30559)
T1 construct: expressed in transfected cells; host or cells: CHO (CHO-OTR cell line further transfected with the NFAT-β-lactamase reporter)
T1 sequence (P30559 1-389): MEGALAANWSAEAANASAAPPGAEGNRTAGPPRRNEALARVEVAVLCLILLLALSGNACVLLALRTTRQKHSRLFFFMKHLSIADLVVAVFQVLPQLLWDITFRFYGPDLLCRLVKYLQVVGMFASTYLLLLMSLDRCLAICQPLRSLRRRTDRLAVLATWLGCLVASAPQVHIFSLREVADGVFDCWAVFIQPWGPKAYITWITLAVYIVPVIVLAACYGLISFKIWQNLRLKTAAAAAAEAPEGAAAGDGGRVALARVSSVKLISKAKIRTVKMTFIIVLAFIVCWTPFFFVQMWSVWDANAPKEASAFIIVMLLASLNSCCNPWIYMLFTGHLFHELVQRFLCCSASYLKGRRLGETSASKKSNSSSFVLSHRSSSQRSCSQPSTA
Assay: Oxytocin Receptor Beta-Lactamase Assay
Type: cell-based
Conditions: oxytocin stimulation 4 hours, read-out: oxytocin antagonist activity, expressed as a Ki value
Method: A suitable assay for determining the oxytocin antagonist activity of a compound is detailed herein below.
Oxytocin Receptor Beta-Lactamase Assay
Cells used are CHO-OTR/NFAT-β-Lactamase. The NFAT-β-lactamase expression construct was transfected into the CHO-OTR cell line and clonal populations were isolated via fluorescence activated cell sorting (FACS). An appropriate clone was selected to develop the assay. […]
Cells grown at 80-90% confluence were harvested and counted. […]
Preparation of 1 ml of 6× Loading Buffer with Enhanced Loading Protocol (this requires scale-up according to number of plates to be screened) • 12 μl of solution A (1 mM CCF4-AM in Dry DMSO) was added to 60 μl of solution B (100 mg/ml Pluronic-F127 in DMSO+0.1% Acetic Acid) and vortexed. • The resulting solution was added to 925 μl of solution C (24% w/w PEG400, 18% TR40 v/v in water). • 75 μl of solution D was added (200 mM probenecid in 200 mM NaOH). • 10 μl of 6× Loading Buffer was added to all wells and incubated for 1.5 hrs-2 hrs at room temperature in the dark. • The plates were read using an LJL Analyst, Excitation 405 nm, Emission 450 nm and 530 nm, gain optimal, lagtime 0.40 μs integration, 4 flashes, bottom reading.

COC(=O)N1Cc2nc(OC)ccc2-n2c(nnc2-c2ccc(-c3ccccc3OC)cc2)C1 [Example 8]
Ki: 3 nM
